From ChEMBL document CHEMBL1124563, “On the structure selectivity problem in drug design. A comparative study of benzylpyrimidine inhibition of vertebrate and bacterial dihydrofolate reductase via molecular graphics and quantitative structure-activity relationships” (J Med Chem, 1989)

Legend:
[1] = Partition coefficient (logD) (aqueous phase 0.1 N HCl)
[2] = Partition coefficient (logD) (0.01 N NaOH); format: physicochemical
Dihydrofolate reductase [3] = biological target: T1, Dihydrofolate reductase (Gallus gallus, UniProt P00378)
T1 sequence (P00378 whole entry): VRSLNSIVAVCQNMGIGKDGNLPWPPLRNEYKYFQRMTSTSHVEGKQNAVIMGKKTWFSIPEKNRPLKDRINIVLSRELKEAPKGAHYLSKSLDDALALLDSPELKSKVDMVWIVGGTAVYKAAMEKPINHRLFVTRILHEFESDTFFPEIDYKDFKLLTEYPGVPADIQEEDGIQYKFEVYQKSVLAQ
Description: Inhibitory activity against chicken liver dihydrofolate reductase

Dihydrofolate reductase [4] = biological target: Dihydrofolate reductase (Lactobacillus casei, UniProt P00381)
Description: Inhibitory activity against Lactobacillus casei dihydrofolate reductase

[5] = Toxic index against Dihydrofolate reductase; format: ADME

Chain of Dihydrofolate reductase (Lactobacillus casei, UniProt P00381) (P00381 whole entry): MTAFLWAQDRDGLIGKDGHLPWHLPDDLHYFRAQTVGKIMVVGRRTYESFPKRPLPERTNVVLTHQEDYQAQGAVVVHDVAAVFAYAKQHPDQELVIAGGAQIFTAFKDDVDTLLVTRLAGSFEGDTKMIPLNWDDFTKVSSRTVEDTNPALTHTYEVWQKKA

Structure (SMILES) | logD ([1]; 0.1 N HCl (aqueous phase)) | logD ([2]; 0.01 N NaOH, read-out: logD) | Ki (Dihydrofolate reductase [3]) [nM] | Ki (Dihydrofolate reductase [4]) [nM] | further results
CC(=O)Nc1ccc(Cc2cnc(N)nc2N)cc1[N+](=O)[O-] | -2.23 |  |  |  | 
COc1cccc(Cc2cnc(N)nc2N)c1 |  |  |  |  | logD ([2]; octanol/water): 1.54
Nc1ccc(Cc2cnc(N)nc2N)cc1 |  | 0.22 |  |  | 
Nc1ncc(Cc2ccc(OC(F)(F)F)cc2)c(N)n1 |  |  | 47900 |  | 
CCOc1cc(Cc2cnc(N)nc2N)ccc1OCc1ccccc1 | 1 |  | 18200 | 309 | 
COc1cc(Cc2cnc(N)nc2N)ccc1OCc1ccccc1 |  | 2.66 | 19100 | 316 | 
Nc1ncc(Cc2ccccc2)c(N)n1 |  |  |  |  | logD ([2]; octanol/water): 1.54
Nc1ncc(Cc2ccc(O)c(O)c2)c(N)n1 | 2.08 |  |  |  | 
CCCCOCc1cccc(Cc2cnc(N)nc2N)c1 |  | 2.88 |  |  | 
COc1ccc(Cc2cnc(N)nc2N)cc1OCc1ccccc1 |  | 2.44 | 18200 | 123 | 
CS(=O)(=O)Oc1ccc(Cc2cnc(N)nc2N)cc1 |  | 0.6 | 49000 | 324 | 
COCCOc1c(Cc2cnc(N)nc2N)ccc(OC)c1OC | -1.81 |  | 229000 | 550 | Toxic index [5]: 2.62
Nc1ncc(Cc2cccc(O)c2)c(N)n1 | -1.34 |  |  |  | 
CCCCCCCOc1ccc(Cc2cnc(N)nc2N)cc1 |  |  |  | 4170 | 
COCCOc1ccc(Cc2cnc(N)nc2N)cc1OCCOC |  |  |  |  | logD ([1]; octanol/water): 1.89
CCc1cc(Cc2cnc(N)nc2N)cc(CO)c1CO | -2.23 |  | 263000 | 195 | Toxic index [5]: 3.13
Nc1ncc(Cc2ccc(-c3ccccc3)cc2)c(N)n1 | 0.98 |  | 5500 | 389 | 
Nc1ncc(Cc2ccc3c(c2)OCO3)c(N)n1 |  |  | 20900 | 457 | 
Nc1ncc(Cc2ccc(OCc3ccccc3)cc2)c(N)n1 |  |  | 14800 | 447 | 
CCCOc1cc(Cc2cnc(N)nc2N)cc(OCCC)c1 |  |  | 74100 | 646 | 
Nc1ncc(Cc2ccc(O)cc2)c(N)n1 | -1.47 |  | 67600 | 417 | 
CCCOc1cc(Cc2cnc(N)nc2N)cc(OCC)c1 |  |  | 43700 | 589 | 
CCCCCCCCOc1cc(Cc2cnc(N)nc2N)ccc1OC | 2.54 |  | 19500 | 316 | 
CCc1cc(Cc2cnc(N)nc2N)cc(NC(C)=O)c1CO | -2.17 |  | 347000 | 151 | Toxicity index [5]: 3.36
CCc1cc(Cc2cnc(N)nc2N)cc(CC)c1CC |  |  | 5620 | 132 | 
C=C(C)c1c(OC)cc(Cc2cnc(N)nc2N)cc1OC |  | 2.07 | 67600 | 45.7 | 
CCOc1cc(Cc2cnc(N)nc2N)cc(OCC)c1 |  |  | 72400 | 389 | 
CCOc1cc(Cc2cnc(N)nc2N)cc(OCC)c1-n1cccc1 [EPIROPRIM] |  |  | 46800 | 46.8 | 

Now from value to molecule, other results behind:

logD ([1]; 0.1 N HCl (aqueous phase)) | logD ([2]; 0.01 N NaOH, read-out: logD) | Ki (Dihydrofolate reductase [3]) [nM] | Ki (Dihydrofolate reductase [4]) [nM] | Structure (SMILES) | further results
-0.18 |  |  | 79.4 | COc1ccc(Cc2cnc(N)nc2N)cc1C(F)(F)F | 
-1.92 |  | 29500 | 214 | COc1ccc(Cc2cnc(N)nc2N)cc1OS(C)(=O)=O | 
 | 0.74 | 141000 | 257 | COc1ccc(Cc2cnc(N)nc2N)cc1O | 
 |  | 17000 | 2000 | CCCCCCCCOc1c(OC)cc(Cc2cnc(N)nc2N)cc1OC | 
 |  |  | 1350 | Cc1cc(C)cc(Cc2cnc(N)nc2N)c1 | 
-1.87 |  | 64600 | 288 | COCCOc1ccc(Cc2cnc(N)nc2N)cc1OC | 
 | 0.6 | 25700 | 363 | COc1cc(Cc2cnc(N)nc2N)ccc1OS(C)(=O)=O | 
 | 0.64 | 49000 | 339 | COc1cc(Cc2cnc(N)nc2N)ccc1O | 
 |  | 70800 | 355 | COc1cc(Cc2cnc(N)nc2N)cc(OC)c1N(C)C [ADITOPRIM] | 
 | 2.01 |  | 52.5 | COc1cc(Cc2cnc(N)nc2N)cc(OC)c1Br [BRODIMOPRIM] | 
 | 0.97 |  |  | COc1ccc(Cc2cnc(N)nc2N)cc1OC [DIAVERIDINE] | 
 | 1.54 |  | 56.2 | COc1cc(Cc2cnc(N)nc2N)cc(OC)c1SC [METIOPRIM] | 
